Like-named read-outs stand apart in the source and are kept apart here.

The test system of assay [1] is embolic strokes in rabbits. Description: rabbit small clot embolic stroke model (RSCEM). The assay is classed as in vivo. An excerpt:
The ability of polyphenol analogs to treat, prevent and/or mitigate one or more symptoms of stroke can also be evaluated in in vivo assays. Such assays are known in the art and find use. One applicable in vivo screening assay is the rabbit clot embolic stroke model, discussed, e.g., in Lapchak, et al., Stroke (2002) 33(9):2279-84 and Lapchak, Exp Neurol. (2007) 205(2):407-13. The rabbit small clot embolic stroke model (RSCEM) and rabbit large clot embolic stroke model (RLCEM) can be used to determine the potential neuroprotective properties and safety profile of test polyphenol analogs after an embolic stroke. Rabbits are embolized by injecting small blood clots (RSCEM) or large blood clots (RLCEM) into the cerebral circulation. Behavioral analysis is conducted 24 hours later, allowing for determination of the effective stroke dose (ES50) or clot amount (milligrams) that produces severe neurological deficits in 50% of rabbits. A drug is considered neuroprotective if it increases the ES50 compared with the vehicle-treated control group.
Either vehicle or bolus injections of chlorogenic acid were administered intravenously over 1 minute starting 5 minutes following embolization using a suspension of small-sized blood clots. In this series of studies, CGA was administered at 50 mg/kg. Behavioral analysis was conducted at 24 hours following treatment, which allowed for the construction of quantal dose-response analysis curves. […] For the superimposed graphs, normal animals are plotted on the y-axis at 0% and abnormal animals are plotted at 100%. […] Moreover, CGA increased the P50 value (the clot dose that produces abnormality in 50% of a treatment group) compared to vehicle control. For a detailed discussion of the methods used to fit the quantal data to a sigmoidal curve, see Zivin and Waud. The pharmacology of chlorogenic acid in the rabbit small clot embolic stroke model (RSCEM) has been published (Lapchak, Exp Neurol. 2007 205(2):407-13). In the manuscript, it is shown that CGA has a therapeutic window of 60 minutes in the RSCEM. FIG. 2 presents the therapeutic window data.
Using the RSCEM assay described above for CGA, the effects of Fisetin (50 mg/kg) on behavioral outcome measured 24 hours following embolization is tested.

Assay [2] has as its system embolic strokes in rabbits. As to conditions: RSCEM, as published in the manuscript; cited from earlier work.
Another assay deals with PC12 cells. The assay can be described thus: glucose starvation assay. The format is cell-based. The conditions noted are these: PC12 cells starved for glucose, MTT 24 hr. Here is the method: FIG. 5C—PC12 cells were glucose-deprived then were incubates in the absence or presence of Baicalein. Cell viability was determined 24 hr later using the MTT assay. […] When these cells are starved for glucose, there is approximately 70% maximal survival in the presence of NGF. Baicalein promotes over 80% survival (FIG. 5C).

Consider `O=C(/C=C/c1ccc(O)c(O)c1)O[C@@H]1C[C@](O)(C(=O)O)C[C@@H](O)[C@H]1O` [Chlorogenic Acid, 1,3,4,5-tetrahydroxy-cyclohexanecarboxylic acid 3-(3,4-dihydroxycinnamate)], for which the “behavior when administered 1 hour following embolization” value in assay [1] (1 hour following embolization) was “effective at improving behavior”. In assay [1] (3 hours following embolization), the “behavior when administered 3 hours following embolization” value is recorded as “neither improve behavior”. Also, the therapeutic window in assay [1] (time post-embolization, FIG. 2) was 60 min; in assay [2], 60 min.

Consider “NGF: NGF, comparator giving approximately 70% maximal survival of glucose-starved PC12 cells”, for which the survival entry in the assay with PC12 cells is given as “approximately 70%”.

The values above are taken from patent publication US9744164B2, “Neuroprotective polyphenol analogs” (Salk Institute for Biological Studies, priority 2011, dated 2017).
